Reference: patent US5747528A, “Chroman derivatives as anti-oxidants” (Warner-Lambert Company, priority 1997, dated 1998)

System: VCAM-1
Assay: VCAM-1 assay: immunoassay of cell-surface VCAM-1 expression on TNF-stimulated human aortic endothelial cells (HAEC)
Type: cell-based
Settings: TNF 250 U/mL, overnight (18 hours)
Description: CELL CULTURE: Human aortic endothelial cells (CellSystem) Media: 50:50 mix of CS 3.0 (CellSystem) and MCDB-107 (Sigma) 10% fetal bovine serum (FBS) (Hyclone) Tissue culture plates (24 well) (Costar) TNF: recombinant Tumor necrosis factor-alpha (Genzyme)
IMMUNOASSAYS: 10% buffered Formalin (Baxter) Dulbecco's modified eagle medium (DMEM), Phosphate buffered saline (PBS) (Gibco) Bovine serum albumin (BSA) (Sigma) Anti-ICAM-1 antibody (R&D System, BBA#3) Sheep anti-mouse IgG (Cappel, #55558) Horseradish peroxidase (HRP)-KIT (Bio-Rad, #172-1064) Anti-VCAM-1 antibody (R&D System, BBA#6) Goat anti-mouse IgG+IgM, F(ab)2 fragments, biotin conjugated (Jackson Immuno Research Lab, #115-066-068) 125-I-Streptavidin (Amersham, #IM.236)
Human aortic endothelial cells (HAEC) were seeded at 100,000 cells/mL/well in 24 well cluster plates and placed in a 5% CO2 to […] humidified incubator at 37° C. […]
The cells were incubated with anti-VCAM-1 monoclonal antibody (1.25 μg/mL) for 2 hours at 37° C. […] Cells were washed again (4 times) and digested overnight with the addition of 500 μL of 1N NaOH and radioactivity contained in the digests counted. Cell-surface VCAM-1 expression is shown as radioactivity bound to the cell surface under various conditions.

Cc1c(C)c2c(c(C)c1O)CCC(C)(COc1ccc(NC(=S)NC(c3ccccc3)c3ccccc3)cc1)O2 (stereo not shown) [Example 1, 1-Benzhydryl-3-[4-(6-hydroxy-2,5,7,8-tetramethyl-Chroman-2-ylmethoxy)-phenyl]-thiourea]
IC50: 23.1 µM
